We go through 16 molecules from patent US8168592B2 (Amgen Inc., priority 2005, dated 2012).

pIC50: −log10 of the molar value. Like-named read-outs stand apart in the source and are kept apart here. Bridge positions count the residues as written; N and C are the ends. Square brackets hold non-standard residues; d marks the D form. Ends that are not written are not given here. Peptide text beside a SMILES is read from it. Oic = O=C(O)[C@@H]1C[C@@H]2CCCC[C@@H]2N1; 1Nal = N[C@@H](Cc1cccc2ccccc12)C(=O)O; 2Nal = N[C@@H](Cc1ccc2ccccc2c1)C(=O)O; hArg = N=C(N)NCCCC[C@H](N)C(=O)O; Tic = O=C(O)[C@@H]1Cc2ccccc2CN1; Cit = NC(=O)NCCC[C@H](N)C(=O)O; PEG = not defined here

The assay concerns the target T1, CGRP1 receptor (Homo sapiens, UniProt O60894+Q16602).
T1 construct: SK-N-MC cells express CRLR and RAMP1, which form CGRP1 receptor; endogenous in cells; host or cells: SK-N-MC human neuroblastoma cells
The assay can be described thus: in vitro CGRP1 receptor mediated cAMP assay in SK-N-MC cells. Format: cell-based. The gist of the method:
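Human SK-N-MC neuroblastoma cells, which endogenously express CRLR/RAMP1, were plated two days before assay and preincubated in plasma-free medium for 15 minutes at room temperature. Cells were then lysed for 30 minutes at 37° C, and cAMP in the lysates was quantified by competitive cAMP-AP chemiluminescent ELISA.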

[1] abbreviates: Table 2C, unconjugated peptide, read-out: Peptide IC50.

T1 sequence (Q16602 23-461): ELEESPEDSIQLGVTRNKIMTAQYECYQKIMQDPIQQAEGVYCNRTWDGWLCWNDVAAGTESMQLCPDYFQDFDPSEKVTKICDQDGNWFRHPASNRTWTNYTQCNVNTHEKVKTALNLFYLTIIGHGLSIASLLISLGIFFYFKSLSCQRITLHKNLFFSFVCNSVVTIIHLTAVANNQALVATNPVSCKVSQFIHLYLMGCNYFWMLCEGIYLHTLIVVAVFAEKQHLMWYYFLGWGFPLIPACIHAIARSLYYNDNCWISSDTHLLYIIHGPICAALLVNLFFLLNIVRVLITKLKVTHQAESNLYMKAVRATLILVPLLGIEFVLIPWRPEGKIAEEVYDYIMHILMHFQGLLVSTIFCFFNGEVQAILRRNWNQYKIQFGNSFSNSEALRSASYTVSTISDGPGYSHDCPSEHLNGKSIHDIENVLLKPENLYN
T1 sequence (O60894 27-148): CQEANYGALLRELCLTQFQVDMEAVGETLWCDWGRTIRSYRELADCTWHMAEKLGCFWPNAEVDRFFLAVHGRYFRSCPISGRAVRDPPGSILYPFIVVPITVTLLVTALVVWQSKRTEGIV

As to `CC(=O)N[C@@H](Cc1c[nH]c2ccccc12)C(=O)N[C@H](C(=O)N[C@H](C(=O)N[C@@H](Cc1c[nH]cn1)C(=O)N[C@@H](CCCNC(N)=O)C(=O)N[C@@H](CC(C)C)C(=O)N[C@@H](C)C(=O)NCC(=O)N[C@@H](CC(C)C)C(=O)N[C@@H](CC(C)C)C(=O)N[C@@H](CO)C(=O)N[C@@H](CCCNC(N)=O)C(=O)N[C@@H](CO)C(=O)NCC(=O)NCC(=O)N[C@H](C(=O)N[C@H](C(=O)N[C@@H](CCCNC(=N)N)C(=O)N[C@@H](CCCCN)C(=O)N[C@@H](CC(N)=O)C(=O)N[C@@H](Cc1ccccc1)C(=O)N[C@H](C(=O)N1CCC[C@H]1C(=O)N[C@H](C(=O)N[C@@H](CC(=O)O)C(=O)N[C@H](C(=O)NCC(=O)N1CCC[C@H]1C(=O)N1Cc2ccccc2C[C@H]1C(=O)N[C@@H](C)C(=O)N[C@@H](Cc1ccccc1)C(N)=O)C(C)C)[C@@H](C)O)C(C)C)C(C)C)C(C)C)[C@@H](C)O)C(C)C` [compound 146] (Ac-WVTH[Cit]LAGLLS[Cit]SGGVVRKNFVPTDVGP[Tic]AF-NH2), the pIC50 (Table 2A, read-out: IC50) was 7.99.
`CC(=O)N[C@@H](CCCNC(N)=O)C(=O)N[C@@H](CC(C)C)C(=O)N[C@@H](C)C(=O)NCC(=O)N[C@@H](CC(C)C)C(=O)N[C@@H](CC(C)C)C(=O)N[C@@H](CO)C(=O)N[C@@H](CCCNC(N)=O)C(=O)N[C@@H](CO)C(=O)NCC(=O)NCC(=O)N[C@H](C(=O)N[C@H](C(=O)N[C@@H](CCCCNC(=N)N)C(=O)N[C@@H](CCCCN)C(=O)N[C@@H](CC(N)=O)C(=O)N[C@@H](Cc1ccccc1)C(=O)N[C@H](C(=O)N1CCC[C@H]1C(=O)N[C@H](C(=O)N[C@@H](CC(=O)O)C(=O)N[C@H](C(=O)NCC(=O)N1CCC[C@H]1C(=O)N[C@@H](Cc1ccccc1)C(=O)N[C@@H](C)C(=O)N[C@@H](Cc1ccccc1)C(N)=O)C(C)C)[C@@H](C)O)C(C)C)C(C)C)C(C)C` [compound 657] (Ac-[Cit]LAGLLS[Cit]SGGVV[hArg]KNFVPTDVGPFAF-NH2): the pIC50 (Table 2A, read-out: IC50) is 7.89.
For the molecule `CC(=O)N[C@@H](Cc1c[nH]c2ccccc12)C(=O)N[C@H](C(=O)N[C@H](C(=O)N[C@@H](Cc1c[nH]cn1)C(=O)N[C@@H](CCCNC(N)=O)C(=O)N[C@@H](CC(C)C)C(=O)N[C@@H](C)C(=O)NCC(=O)N[C@@H](CC(C)C)C(=O)N[C@@H](CC(C)C)C(=O)N[C@@H](CO)C(=O)N[C@@H](CCCNC(=N)N)C(=O)N1CCC[C@H]1C(=O)NCC(=O)NCC(=O)N[C@H](C(=O)N[C@H](C(=O)N[C@@H](CCCNC(=N)N)C(=O)N[C@@H](CCCCN)C(=O)N[C@@H](CC(N)=O)C(=O)N[C@@H](Cc1ccccc1)C(=O)N[C@H](C(=O)N1CCC[C@H]1C(=O)N[C@H](C(=O)N[C@@H](CC(=O)O)C(=O)N[C@H](C(=O)NCC(=O)N1CCC[C@H]1C(=O)N[C@@H](Cc1ccccc1)C(=O)N[C@@H](C)C(=O)N[C@@H](Cc1ccccc1)C(N)=O)C(C)C)[C@@H](C)O)C(C)C)C(C)C)C(C)C)[C@@H](C)O)C(C)C` [compound 868] (Ac-WVTH[Cit]LAGLLSRPGGVVRKNFVPTDVGPFAF-NH2), under setting [1], the pIC50 was 8.52.
For the molecule `CC(=O)N[C@@H](Cc1c[nH]c2ccccc12)C(=O)N[C@H](C(=O)N[C@H](C(=O)N[C@@H](Cc1c[nH]cn1)C(=O)N[C@@H](CCC(N)=O)C(=O)N[C@@H](CC(C)C)C(=O)N[C@@H](C)C(=O)NCC(=O)N[C@@H](CC(C)C)C(=O)N[C@@H](CC(C)C)C(=O)N[C@@H](CO)C(=O)N[C@@H](CCC(N)=O)C(=O)N[C@@H](CO)C(=O)NCC(=O)NCC(=O)N[C@H](C(=O)N[C@H](C(=O)N[C@@H](CCCCNC(=N)N)C(=O)N[C@@H](CCCCN)C(=O)N[C@@H](CC(N)=O)C(=O)N[C@@H](Cc1ccccc1)C(=O)N[C@H](C(=O)N1CCC[C@H]1C(=O)N[C@H](C(=O)N[C@@H](CC(=O)O)C(=O)N[C@H](C(=O)NCC(=O)N1CCC[C@H]1C(=O)N[C@@H](Cc1ccccc1)C(=O)N[C@@H](C)C(=O)N[C@@H](Cc1ccccc1)C(N)=O)C(C)C)[C@@H](C)O)C(C)C)C(C)C)C(C)C)[C@@H](C)O)C(C)C` [compound 885] (Ac-WVTHQLAGLLSQSGGVV[hArg]KNFVPTDVGPFAF-NH2), under setting [1], the negative logarithm of the IC50 (pIC50) was 8.85.
Take “Ac-WVTHQLAGLLSQSGGVVRKNFVPTDVGPFAF-NH2 [compound 857]”: the pIC50 under setting [1] is 9.28.
Take “SEQ ID NO:4 (WVTHRLAGLLSRSGGVVKNNFVPTNVGSKAF-NH2)”: the “improved potency relative to native CGRP(8-37) (SEQ ID NO:1)” value (cAMP assay) is on record as “greater than 7 fold”.
Consider “SEQ ID NO:27 (WVTHXLAGLLSRSGGVVRKNFVPTDVGPFAF; CGRP peptide; MOD_RES (1)..(1): …ON; MISC_FEATURE (5)..(5): xaa=citrulline; MOD_RES (31)..(31): AMIDATION)”, for which the “antagonist activity in cAMP assay, in words” value is reported as “well tolerated”.
Regarding “SEQ ID NO:42 (Ac-WVTHRLAGLLS[dR]SGGVVRCNFVPTDVGPFAF-NH2; not fully specified (residue 19); printed as Ac-WVTHRLAGLLSrSGGVVRCNFVPTDVGPFAF-NH2)”, where the note is “cAMP assay”, the “loss in antagonist activity on PEGylation relative to the unconjugated parent peptide” value is listed as “greater than 32 fold”.
Consider “SEQ ID NO:3 (CGGGGGGGVTHRLAGLLSRSGGVVKNNFVPTDVGPFAF-NH2)”, for which the “improved potency relative to native CGRP(8-37) (SEQ ID NO:1)” value (cAMP assay) is given as “more than 6 fold”.
For “766 (Ac-WVTHRLAGLLSRSGGVVRC(20 kDa MeO‑PEG)NFVPTDVGPFAF-NH2) [compound 766]”, for the setting “Table 2D, read-out: IC50”, the pIC50 is 8.39.
For the molecule “SEQ ID NO:30 (WVTHRLAGLLSXSGGVVRKNFVPTDVGPFAF; CGRP peptide; MOD_RES (1)..(1): …ON; MISC_FEATURE (12)..(12): xaa=citrulline; MISC_FEATURE (19)..(19): PEGylated; MOD_RES (31)..(31): AMIDATION)”, the “antagonist activity in cAMP assay, in words” value is reported as “relatively minor loss of in vitro antagonist activity”.
As to `CC(=O)N[C@@H](Cc1c[nH]c2ccccc12)C(=O)N[C@H](C(=O)N[C@H]1CCC(=O)NCCCC[C@@H](C(=O)NCC(=O)N[C@H]2CCC(=O)NCCCC[C@@H](C(=O)NCC(=O)NCC(=O)N[C@H](C(=O)N[C@H](C(=O)N[C@@H](CCCCNC(=N)N)C(=O)N[C@@H](CCCCN)C(=O)N[C@@H](CC(N)=O)C(=O)N[C@@H](Cc3ccccc3)C(=O)N[C@H](C(=O)N3CCC[C@H]3C(=O)N[C@H](C(=O)N[C@@H](CC(=O)O)C(=O)N[C@H](C(=O)NCC(=O)N3CCC[C@H]3C(=O)N[C@@H](Cc3ccccc3)C(=O)N[C@@H](C)C(=O)N[C@@H](Cc3ccccc3)C(N)=O)C(C)C)[C@@H](C)O)C(C)C)C(C)C)C(C)C)NC(=O)[C@H](CCCNC(N)=O)NC(=O)[C@H](CO)NC(=O)[C@H](CC(C)C)NC2=O)NC(=O)[C@H](CC(C)C)NC(=O)[C@H](CCCNC(=N)N)NC(=O)[C@H](Cc2c[nH]cn2)NC1=O)C(C)C` [compound 902], under setting [1], the pIC50 is 9.31.
Turning to `CC(=O)N[C@@H](Cc1c[nH]c2ccccc12)C(=O)N[C@H](C(=O)N[C@H](C(=O)N[C@@H](Cc1c[nH]cn1)C(=O)N[C@@H](CCCNC(N)=O)C(=O)N[C@@H](CC(C)C)C(=O)N[C@@H](C)C(=O)NCC(=O)N[C@@H](CC(C)C)C(=O)N[C@@H](CC(C)C)C(=O)N[C@@H](CO)C(=O)N[C@@H](CCCNC(N)=O)C(=O)N[C@@H](CO)C(=O)NCC(=O)NCC(=O)N[C@H](C(=O)N[C@H](C(=O)N[C@@H](CCCCNC(=N)N)C(=O)N[C@@H](CCCCN)C(=O)N[C@@H](CC(N)=O)C(=O)N[C@@H](Cc1ccccc1)C(=O)N[C@H](C(=O)N1CCC[C@H]1C(=O)N[C@H](C(=O)N[C@@H](CC(=O)O)C(=O)N[C@H](C(=O)NCC(=O)N1[C@H](C(=O)N[C@@H](Cc2cccc3ccccc23)C(=O)N[C@@H](C)C(=O)N[C@@H](Cc2ccccc2)C(N)=O)C[C@@H]2CCCC[C@@H]21)C(C)C)[C@@H](C)O)C(C)C)C(C)C)C(C)C)[C@@H](C)O)C(C)C` [compound 933] (Ac-WVTH[Cit]LAGLLS[Cit]SGGVV[hArg]KNFVPTDVG[Oic][1Nal]AF-NH2), the pIC50 under setting [1] was 9.06.
As for “SEQ ID NO:38 (Ac-WVTHRLAGLLSQSGGVVRK(PEG)NFVPTDVGPFAF-NH2; reading uncertain)”, under “amine linkage”, the “more potent than the thioether-linked PEGylated analog SEQ ID NO:36” value is reported as “more than 42 fold”.
As to `CC(=O)N[C@@H](Cc1c[nH]c2ccccc12)C(=O)N[C@H](C(=O)N[C@H](C(=O)N[C@@H](Cc1c[nH]cn1)C(=O)N[C@@H](CCCNC(N)=O)C(=O)N[C@@H](CC(C)C)C(=O)N[C@@H](C)C(=O)NCC(=O)N[C@@H](CC(C)C)C(=O)N[C@@H](CC(C)C)C(=O)N[C@@H](CO)C(=O)N[C@@H](CCCNC(N)=O)C(=O)N[C@@H](CO)C(=O)NCC(=O)NCC(=O)N[C@H](C(=O)N[C@H](C(=O)N[C@@H](CCCCNC(=N)N)C(=O)N[C@@H](CCCCN)C(=O)N[C@@H](CC(N)=O)C(=O)N[C@@H](Cc1ccccc1)C(=O)N[C@H](C(=O)N1[C@H](C(=O)N[C@H](C(=O)N[C@@H](CC(=O)O)C(=O)N[C@H](C(=O)NCC(=O)N2CCC[C@H]2C(=O)N[C@@H](Cc2cccc3ccccc23)C(=O)N[C@@H](C)C(=O)N[C@@H](Cc2ccc3ccccc3c2)C(N)=O)C(C)C)[C@@H](C)O)C[C@@H]2CCCC[C@@H]21)C(C)C)C(C)C)C(C)C)[C@@H](C)O)C(C)C` [compound 133] (Ac-WVTH[Cit]LAGLLS[Cit]SGGVV[hArg]KNFV[Oic]TDVGP[1Nal]A[2Nal]-NH2), the negative-log IC50 (pIC50) (Table 2A, read-out: IC50) was 8.56.
On to `CC(=O)N[C@@H](Cc1c[nH]c2ccccc12)C(=O)N[C@H](C(=O)N[C@H](C(=O)N[C@@H](Cc1c[nH]cn1)C(=O)N[C@@H](CCCNC(N)=O)C(=O)N[C@@H](CC(C)C)C(=O)N[C@@H](C)C(=O)NCC(=O)N[C@H]1CCC(=O)NCCCC[C@@H](C(=O)NCC(=O)NCC(=O)N[C@H](C(=O)N[C@H](C(=O)N[C@@H](CCCCNC(=N)N)C(=O)N[C@@H](CCCCN)C(=O)N[C@@H](CC(N)=O)C(=O)N[C@@H](Cc2ccccc2)C(=O)N[C@H](C(=O)N2CCC[C@H]2C(=O)N[C@H](C(=O)N[C@@H](CC(=O)O)C(=O)N[C@H](C(=O)NCC(=O)N2[C@H](C(=O)N[C@@H](Cc3cccc4ccccc34)C(=O)N[C@@H](C)C(=O)N[C@@H](Cc3ccccc3)C(N)=O)C[C@@H]3CCCC[C@@H]32)C(C)C)[C@@H](C)O)C(C)C)C(C)C)C(C)C)NC(=O)[C@H](CCCCNC(=N)N)NC(=O)[C@H](CO)NC(=O)[C@H](CC(C)C)NC1=O)[C@@H](C)O)C(C)C` [compound 944] (Ac-WVTH[Cit]LAGELS[hArg]KGGVV[hArg]KNFVPTDVG[Oic][1Nal]AF-NH2; lactam 9-13), for which the pIC50 under setting [1] is 9.07.
